Experimental data published in a melting point compilation (Tetko et al.).

Row | melting point [°C] | Compound
1 | 104 to 106 | Cc1cc(C=O)ccc1-n1cncn1
2 | 118 to 120 | c1ccc(CN(Cc2ccccc2)Cn2nnc3ccccc32)cc1
3 | 71 to 73 | COc1ncncc1N
4 | 117 to 119 | O=C(O)C1(c2ccc(Br)cc2)CCC1
5 | 86 to 88 | CC(C)=CCOc1cccc(C(=O)O)c1
6 | 199 to 201 | O=[N+]([O-])c1ccc(O)nc1Cl
7 | 59 to 61 | Cc1cccc(C)c1C(C)O (stereo not given)
8 | 169 to 171 | O=C(O)CC1(C(=O)O)CCN(C(=O)OCc2ccccc2)C1 (stereo not given)
9 | 169 to 171 | CC(C)(C)C(=O)NO
10 | 199 to 201 | Cn1cc([N+](=O)[O-])cc1C(=O)O
11 | 71 to 73 | Cc1cccc2[nH]c(CO)cc12
12 | 31 to 33 | CCOc1cc(F)ccc1[N+](=O)[O-]
13 | 159 to 161 | Fc1ccc2nc(-c3ccccn3)[nH]c2c1
14 | 65 to 67 | Cc1oc(-c2cccs2)nc1CCl
15 | 203 to 205 | CC(C)C(=O)Nc1ccc(CNC(=O)n2ccnc2)cc1
16 | 199 to 201 | CC(=O)Nc1cccc(NC(=O)C2CCNCC2)c1
17 | 97 to 99 | O=C1CCC(c2ccccc2)N1 (stereo not given)
18 | 178 to 180 | Cc1cc(S(=O)(=O)N(C)C)cc(N)c1C
19 | 106 to 108 | O=C(O)/C=C/c1ccc(OC(F)F)cc1OC(F)F
20 | 34 to 36 | OCc1cccc(F)c1Cl
21 | 95 to 97 | Oc1ccccc1-c1ccn[nH]1
22 | 67 to 69 | Clc1cc(Cl)cc(-c2noc(Cl)n2)c1

Row | melting point [°C] | Compound
23 | 227 to 229 | Cc1c(NS(=O)(=O)c2ccc(Cl)c([N+](=O)[O-])c2)c(=O)n(-c2ccccc2)n1C
24 | 99 to 101 | CCNC(=O)c1cccc(C#N)c1
25 | 116 to 118 | Nc1ccc(Oc2ccc(C(F)(F)F)cc2)nc1
26 | 166 to 168 | O=C(O)c1ccc(Cl)c(NC(=O)c2cccs2)c1
27 | 135 to 137 | CCn1c(S)nc2ccccc21
28 | 87 to 89 | CC(c1ccco1)N(C(=O)CCl)c1ccccn1 (stereo not given)
29 | 137 to 139 | Clc1nc(-c2cccnc2)nc2sc3c(c12)CCCC3
30 | 153 to 155 | Cc1nc(COc2cccc(C(=O)O)c2)cs1
31 | 97 to 99 | OC(c1ccccc1)c1nc(-c2ccccc2)no1 (stereo not given)
32 | 155 to 157 | Cc1ccc(C(=O)NC(C(=O)O)C(C)C)cc1 (stereo not given)
33 | 197 to 199 | Cc1ccc(C(=O)O)c(O)c1C
34 | 134 to 136 | Cc1ccc([N+](=O)[O-])c(OCCC(=O)O)c1
35 | 57 to 59 | CC(C)Oc1ncccc1O
36 | 138 to 140 | CC(=O)N(c1ccc(C(F)(F)F)cc1)c1nc(C=O)cs1
37 | 80 to 82 | COc1ccc(C(C)=O)cc1Cn1cccn1
38 | 173 to 175 | CCCCNC(=O)Nc1cccc2c1CCCN2
39 | 130 to 132 | CC1=C(C(=O)O)CCC1
40 | 161 to 163 | NCCNC(CC(=O)O)C(N)=O (stereo not given)
41 | 208 to 210 | Cc1ccc(-n2nc(C(=O)O)c3c2CCCC3)cc1F
42 | 99 to 101 | O=C(O)C=C1CCOCC1
43 | 169 to 171 | O=Cc1[nH]nnc1-c1ccccc1
44 | 157 to 159 | O=C(c1cccnc1O)N1CCCNCC1

Row | melting point [°C] | Compound
45 | 154 to 156 | COc1ccc(N)cc1OCC(F)(F)F
46 | 126 to 128 | CS(=O)(=O)Cc1cc(F)ccc1N
47 | 190 to 192 | O=C(O)/C=C/S(=O)(=O)c1ccccc1
48 | 85 to 87 | COC(=O)COc1ccc(C(C)=O)cc1
49 | 202 to 204 | CSc1nc(C(=O)O)c2ccccn12
50 | 77 to 79 | CCc1noc(-c2ccc(C)c(N)c2)n1
51 | 191 to 193 | O=C(O)CCc1nnc(-c2ccccn2)o1
52 | 112 to 114 | Cn1cccc(N)c1=O
53 | 231 to 233 | CCOC(=O)c1sc2nc(Cc3ccccn3)[nH]c(=O)c2c1C
54 | 101 to 103 | N#Cc1ccc(OCCN)nc1
55 | 76 to 78 | CC(C)(C)c1ccc(CC(=O)O)cc1
56 | 247 to 249 | Cc1ccc(-c2ccc(C(=O)O)c(F)c2)cc1
57 | 116 to 118 | Clc1ccc(-c2cc(CBr)on2)cc1
58 | 212 to 214 | Cc1cc(N)c2cc(N)ccc2n1
59 | 227 to 229 | Cc1[nH]c2ccccc2c1C(=O)CCl
60 | 140 to 142 | CNS(=O)(=O)Cc1ccc(CN)cc1
61 | 154 to 156 | O=C(O)c1nn(-c2ccccc2)cc1O
62 | 143 to 145 | CCN(CC)S(=O)(=O)c1ccc(C(=O)NCC(=O)O)cc1
63 | 170 to 172 | CCc1ccc(-c2ccc(C(=O)O)o2)cc1
64 | 149 to 151 | CC1CCC(Nc2ccccn2)CC1 (stereo not given)
65 | 199 to 201 | Nc1c(-c2ccccn2)nc2ccccn12
66 | 99 to 101 | N#CCC(=O)c1cccc2c1OCCO2

The next lines start with the compound.

Row | Compound | melting point [°C]
67 | CCC(=O)c1ccc(Cl)s1 | 47 to 49
68 | O=C(O)Cc1ccc(-n2cnnn2)cc1 | 171 to 173
69 | COC(=O)c1sc(C)cc1O | 51 to 53
70 | Cc1nc([N+](=O)[O-])cn1CC(=O)O | 244 to 246
71 | CC(C)(C)Cc1cc(N)n(-c2ccccc2)n1 | 95 to 97
72 | Cn1c(Cl)cc(=O)[nH]c1=O | 195 to 197
73 | CC(Cl)C(=O)N1CCN(c2ncccn2)CC1 (stereo not given) | 96 to 98
74 | N#Cc1ccc(N2CCC(C(=O)O)CC2)nc1 | 174 to 176
75 | O=C(O)c1cc2c(OC(F)(F)F)cccc2[nH]1 | 189 to 191
76 | COc1ccc(C(=O)O)c(Br)c1 | 189 to 191
77 | CNC(=O)COc1ccc(C=O)cc1OC | 105 to 107
78 | N#CCCc1c(Cl)cccc1Cl | 40 to 42
79 | CC(C)(C)OC(=O)NC(C)(C(=O)O)C1CC1 (stereo not given) | 140 to 142
80 | Cc1oc(C)c(C(=O)O)c1Br | 189 to 191
81 | O=C1OC(O)C(Br)=C1Br (stereo not given) | 122 to 124
82 | N#Cc1ccc(OCc2cccc(C(=O)O)c2)cc1 | 221 to 223
83 | O=C(O)Cc1cccc(OCC(F)(F)F)c1 | 99 to 101
84 | C#CCNC(=O)CCl | 63 to 67
85 | O=C(O)COC1CCOCC1 | 65 to 67
86 | CCOCCS(=O)(=O)NCC(=O)O | 63 to 65
87 | COc1ccc(-c2cc(C(=O)NN)[nH]n2)cc1 | 205 to 220
88 | CS(=O)(=O)Nc1nc2ccc(N)cc2s1 | 281 to 283
89 | O=C(O)C1CCN(S(=O)(=O)c2cccc3c2N=S=N3)CC1 | 232 to 234
90 | Nc1ccc(OCC(F)(F)F)c(C(=O)O)c1 | 190 to 192
91 | O=Cc1c(OCC(=O)O)ccc2ccccc12 | 174 to 176
92 | COC(=O)c1ccc(CNC(=O)C(C)Cl)cc1 (stereo not given) | 96 to 98
93 | CC(c1nnc(S)n1-c1ccc(F)cc1)N(C)C (stereo not given) | 169 to 171

Row | Compound | melting point [°C]
94 | O=c1cc(CO)nc2ccccn12 | 172 to 174
95 | CC[C@@H](CO)NCc1ccccc1 | 73 to 75
96 | Nc1nonc1-c1ccccc1 | 96 to 98
97 | CC(=O)NCC(=O)NCC(=O)O | 174 to 176
98 | CC(CO)NCc1ccccc1Cl (stereo not given) | 54 to 56
99 | CCOC(=O)c1cccnc1NC | 46 to 48
100 | Cn1cc(N2CCC(N)C2=O)cn1 (stereo not given) | 131 to 133
101 | O=S(=O)(Cl)c1csc(-c2ccc(Br)cc2)n1 | 116 to 118
102 | COc1ccc(-n2cnnc2S)cn1 | 199 to 201
103 | NCC(O)COc1cccc(C(F)(F)F)c1 (stereo not given) | 66 to 68
104 | O=C(CCl)N1CCN(S(=O)(=O)c2c(F)cccc2F)CC1 | 119 to 121
105 | Nc1cc(S(=O)(=O)Nc2ccc(Cl)cc2)ccc1N1CCOCC1 | 55 to 58
106 | O=C1CCC2(CC1)C(=O)Nc1ccccc12 | 198 to 200
107 | O=C(O)c1cnn(CCCl)c1 | 147 to 149
108 | O=C(CCl)Nc1ccccc1Br | 78 to 80
109 | CC(=O)CC(=O)NCCc1ccccc1 | 57 to 59
110 | CC(=O)c1ccc(C#N)c(F)c1 | 62 to 64
111 | CS(=O)(=O)CCCS(=O)(=O)Cl | 62 to 64
112 | COc1ncnc(N(C)C)c1N | 69 to 71
113 | CCc1cc(OCC(=O)O)ccc1Cl | 143 to 145
114 | O=C(O)C=Cc1ccccc1OCc1cccc(Br)c1 | 148 to 150
115 | COc1cc(Cl)c(C)cc1N | 102 to 103
116 | O=C(O)c1cc(-c2ccc(Cl)cc2)nn1-c1ccccc1 | 214 to 216
117 | CC(=O)NC1(C(N)=NO)CCN(C)CC1 | 202 to 204
118 | O=C(O)c1nc(OCC2CC2)c2ccccc2n1 | 109 to 111
119 | O=S(=O)(F)Cc1ccc(Cl)nc1 | 81 to 83
120 | Cn1cc(CCC(=O)O)cn1 | 137 to 139

Row | Compound | melting point [°C]
121 | OCc1cnc(-c2ccco2)o1 | 99 to 101
122 | Nc1nc2c(s1)CCCCCC2 | 202 to 204
123 | CN(C)c1ccc(C2CC2C(=O)O)cc1 (stereo not given) | 119 to 121
124 | Cc1[nH]n(-c2ccc(Br)cc2)c(=N)c1C | 131 to 133
125 | ClCc1nnnn1CC1CC1 | 30 to 32
126 | O=C(Nc1cccnc1)c1ccc(O)cc1 | 273 to 275
127 | COC(=O)C(C)Nc1ccc([N+](=O)[O-])cc1 (stereo not given) | 99 to 101
128 | Nc1cccc(NC(=O)Nc2cccc(C(F)(F)F)c2)c1 | 180 to 182
129 | CC(C)(Sc1ccc(Br)cc1)C(=O)O | 109 to 111
130 | O=S(=O)(O)c1nc2ccccc2[nH]1 | 116 to 119
131 | Oc1cccc(-c2cn[nH]c2)c1 | 218 to 220
132 | Cc1ccc2c(n1)OCCN2 | 109 to 111
133 | CCn1cc(S(N)(=O)=O)nc1C | 179 to 181
134 | CC(C)CCNS(=O)(=O)c1ccc(Cl)nc1 | 91 to 93
135 | NC(COc1ccc(Cl)cc1Cl)=NO | 141 to 144
136 | O=C(O)CC1C(=O)Nc2ccccc21 (stereo not given) | 214 to 216
137 | Cn1[nH]c(=O)c2c(=O)cc[nH]c21 | 327 to 329
138 | Cc1cc(C)c(N)c(Cl)n1 | 56 to 58
139 | CS(=O)(=O)c1ccc(C#N)cc1N | 150 to 152
140 | CSc1nc2ncccc2o1 | 62 to 64
141 | O=C(O)c1cc(C2CC2)nc2onc(-c3ccco3)c12 | 211 to 213
142 | Cn1c(S)nc2sc3c(c2c1=O)CCCC3 | 304 to 306
143 | O=C(Nc1ccc2[nH]ccc2c1)c1ccc(F)cc1Br | 185 to 187
144 | Cc1ccc(-c2csc(=O)n2CC(=O)O)cc1 | 128 to 130
145 | O=C1Cc2ncccc2N1 | 189 to 191
